Values quoted from earlier work in patent US5525634A, “Colonic drug delivery system” (priority 1994, dated 1996).

Key:
[1] = small intestinal mucosa / esterases
morphine-dependent rats = details: for time to diarrhea, withdrawal behavior and tail skin temperature response: oral administration; for time to diarrhea, withdrawal behavior and tail skin temperature response / time to diarrhea: morphine-dependent rats; for time to diarrhea: direct colonic administration

Row | Compound | passage through / cleavage in the small intestine [1] | time to diarrhea, withdrawal behavior and tail skin temperature response (morphine-dependent rats) | time to diarrhea (morphine-dependent rats) | activity on subcutaneous administration (morphine-dependent rats)
1 | CC(=O)Oc1ccc(C(c2ccc(OC(C)=O)cc2)c2ccccn2)cc1 [bisacodyl] | readily cleaved by the esterases in the small intestine | – | – | –
2 | C=C1CC[C@@]2(O)[C@H]3Cc4ccc(O)c5c4[C@@]2(CCN3CC2CC2)[C@H]1O5 [nalmefene] | – | ≤ 15 min | – | –
3 | C=C1CCC2(O)C3Cc4ccc(OC5OC(C(=O)O)C(O)C(O)C5O)c5c4C2(CCN3CC2CC2)C1O5 (stereo not shown) [nalmefene glucuronide] | – | – | 5 to 8 min | inactive
4 | C=CCN1CC[C@]23c4c5ccc(O[C@@H]6O[C@H](C(=O)O)[C@@H](O)[C@H](O)[C@H]6O)c4O[C@H]2C(=O)CC[C@@]3(O)[C@H]1C5 [naloxone glucuronide] | – | – | 5 to 8 min | inactive
5 | C=CCN1CC[C@]23c4c5ccc(O)c4O[C@H]2C(=O)CC[C@@]3(O)[C@H]1C5 [naloxone] | – | ≤ 15 min | – | –
